The source of these data is patent US11331299B2, “Medicinal use of serrulatane diterpenes” (The University of Sydney, priority 2016, dated 2022).

Where two headings read alike, the source gives them in different places.

In experiment [1] the target is T1, BAP1 (h) (Homo sapiens, UniProt Q92560).
T1 sequence (Q92560 1-729): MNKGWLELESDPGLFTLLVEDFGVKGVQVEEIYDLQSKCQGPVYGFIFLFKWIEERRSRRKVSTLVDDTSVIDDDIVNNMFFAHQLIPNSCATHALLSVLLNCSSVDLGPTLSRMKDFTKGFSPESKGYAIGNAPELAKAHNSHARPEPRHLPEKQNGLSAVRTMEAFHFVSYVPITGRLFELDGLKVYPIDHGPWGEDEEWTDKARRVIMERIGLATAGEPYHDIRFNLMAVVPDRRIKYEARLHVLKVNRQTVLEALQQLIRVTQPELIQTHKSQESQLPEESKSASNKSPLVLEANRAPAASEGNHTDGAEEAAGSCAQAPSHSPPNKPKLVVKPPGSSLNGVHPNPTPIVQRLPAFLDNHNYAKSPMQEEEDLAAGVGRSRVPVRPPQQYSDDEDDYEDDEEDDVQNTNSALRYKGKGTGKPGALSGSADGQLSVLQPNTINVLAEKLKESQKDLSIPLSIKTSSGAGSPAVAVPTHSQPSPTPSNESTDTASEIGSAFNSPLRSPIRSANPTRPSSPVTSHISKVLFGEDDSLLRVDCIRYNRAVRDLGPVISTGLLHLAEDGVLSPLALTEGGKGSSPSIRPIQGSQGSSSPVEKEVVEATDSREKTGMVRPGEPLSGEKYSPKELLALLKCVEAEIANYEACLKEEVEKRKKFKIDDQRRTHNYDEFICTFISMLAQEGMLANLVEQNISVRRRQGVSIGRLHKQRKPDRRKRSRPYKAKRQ
The settings on record: reference compound; LanthaScreen DUB substrate 20 nM, 180 min/RT; cited from earlier work.

Another experiment has as its target USP 10 (h) (Homo sapiens, UniProt Q14694). The settings on record: reference compound; LanthaScreen DUB substrate 10 nM, 60 min/22° C.; cited from earlier work.
In experiment [2] the target is T2, USP 14 (h) (Homo sapiens, UniProt P54578). To be noted: reference compound; LanthaScreen DUB substrate 10 nM, 240 min/RT; cited from earlier work.
T2 sequence (P54578 whole entry): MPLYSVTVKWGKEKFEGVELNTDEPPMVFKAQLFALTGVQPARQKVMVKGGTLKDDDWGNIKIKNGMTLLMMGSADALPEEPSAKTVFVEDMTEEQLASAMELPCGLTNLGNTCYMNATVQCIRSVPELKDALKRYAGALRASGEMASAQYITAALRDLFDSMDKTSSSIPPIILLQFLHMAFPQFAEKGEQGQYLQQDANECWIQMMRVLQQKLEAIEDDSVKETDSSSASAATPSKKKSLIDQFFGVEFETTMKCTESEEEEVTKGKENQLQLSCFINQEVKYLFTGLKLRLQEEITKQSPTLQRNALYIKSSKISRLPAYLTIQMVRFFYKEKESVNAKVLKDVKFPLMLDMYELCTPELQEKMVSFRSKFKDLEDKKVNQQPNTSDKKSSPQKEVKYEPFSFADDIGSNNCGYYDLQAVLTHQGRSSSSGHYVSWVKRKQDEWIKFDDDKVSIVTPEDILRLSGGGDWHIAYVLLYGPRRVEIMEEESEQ
The target in experiment [3] is T3, USP 21 (h) (Homo sapiens, UniProt Q9UK80).
T3 sequence (Q9UK80 1-565): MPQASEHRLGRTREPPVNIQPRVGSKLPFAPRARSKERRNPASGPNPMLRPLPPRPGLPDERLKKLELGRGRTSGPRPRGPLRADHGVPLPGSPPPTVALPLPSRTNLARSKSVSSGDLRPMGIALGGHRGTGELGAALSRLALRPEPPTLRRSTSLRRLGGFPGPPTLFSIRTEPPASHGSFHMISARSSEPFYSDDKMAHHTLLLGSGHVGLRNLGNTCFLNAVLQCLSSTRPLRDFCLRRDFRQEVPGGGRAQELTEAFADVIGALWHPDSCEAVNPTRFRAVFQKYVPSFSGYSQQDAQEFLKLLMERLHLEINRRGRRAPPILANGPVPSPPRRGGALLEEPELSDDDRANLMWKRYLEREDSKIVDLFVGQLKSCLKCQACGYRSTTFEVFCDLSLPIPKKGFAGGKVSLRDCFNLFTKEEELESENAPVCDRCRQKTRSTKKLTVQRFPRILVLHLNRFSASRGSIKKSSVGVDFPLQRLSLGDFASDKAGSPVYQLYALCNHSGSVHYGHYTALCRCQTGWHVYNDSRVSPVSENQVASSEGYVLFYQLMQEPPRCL
Kind of experiment: Epigenetic enzyme assay, Ubiquitin modifying enzymes. The experiment is classed as biochemical. To be noted: Table 10; read-out: Reference IC50.

Experiment [4] has as its target T4, USP 7 (h) (Homo sapiens, UniProt Q93009). The description is as above. The experiment is classed as biochemical. The settings on record: Table 10; read-out: Reference IC50.
For experiment [5], the target named is T2, USP 14 (h). Described as above. The experiment is classed as biochemical. The settings on record: Table 10; read-out: Reference IC50.
For experiment [6], the target named is T4, USP 7 (h). The settings on record: reference compound; LanthaScreen DUB substrate 10 nM, 60 min/RT; cited from earlier work.
The target in experiment [7] is T3, USP 21 (h). To be noted: reference compound; LanthaScreen DUB substrate 10 nM, 15 min/RT; cited from earlier work.
For experiment [8], the target named is T1, BAP1 (h). Kind of experiment: Epigenetic enzyme assay, Ubiquitin modifying enzymes. The settings on record: Table 10; read-out: Reference IC50. The experiment is classed as biochemical.

T4 sequence (Q93009 whole entry): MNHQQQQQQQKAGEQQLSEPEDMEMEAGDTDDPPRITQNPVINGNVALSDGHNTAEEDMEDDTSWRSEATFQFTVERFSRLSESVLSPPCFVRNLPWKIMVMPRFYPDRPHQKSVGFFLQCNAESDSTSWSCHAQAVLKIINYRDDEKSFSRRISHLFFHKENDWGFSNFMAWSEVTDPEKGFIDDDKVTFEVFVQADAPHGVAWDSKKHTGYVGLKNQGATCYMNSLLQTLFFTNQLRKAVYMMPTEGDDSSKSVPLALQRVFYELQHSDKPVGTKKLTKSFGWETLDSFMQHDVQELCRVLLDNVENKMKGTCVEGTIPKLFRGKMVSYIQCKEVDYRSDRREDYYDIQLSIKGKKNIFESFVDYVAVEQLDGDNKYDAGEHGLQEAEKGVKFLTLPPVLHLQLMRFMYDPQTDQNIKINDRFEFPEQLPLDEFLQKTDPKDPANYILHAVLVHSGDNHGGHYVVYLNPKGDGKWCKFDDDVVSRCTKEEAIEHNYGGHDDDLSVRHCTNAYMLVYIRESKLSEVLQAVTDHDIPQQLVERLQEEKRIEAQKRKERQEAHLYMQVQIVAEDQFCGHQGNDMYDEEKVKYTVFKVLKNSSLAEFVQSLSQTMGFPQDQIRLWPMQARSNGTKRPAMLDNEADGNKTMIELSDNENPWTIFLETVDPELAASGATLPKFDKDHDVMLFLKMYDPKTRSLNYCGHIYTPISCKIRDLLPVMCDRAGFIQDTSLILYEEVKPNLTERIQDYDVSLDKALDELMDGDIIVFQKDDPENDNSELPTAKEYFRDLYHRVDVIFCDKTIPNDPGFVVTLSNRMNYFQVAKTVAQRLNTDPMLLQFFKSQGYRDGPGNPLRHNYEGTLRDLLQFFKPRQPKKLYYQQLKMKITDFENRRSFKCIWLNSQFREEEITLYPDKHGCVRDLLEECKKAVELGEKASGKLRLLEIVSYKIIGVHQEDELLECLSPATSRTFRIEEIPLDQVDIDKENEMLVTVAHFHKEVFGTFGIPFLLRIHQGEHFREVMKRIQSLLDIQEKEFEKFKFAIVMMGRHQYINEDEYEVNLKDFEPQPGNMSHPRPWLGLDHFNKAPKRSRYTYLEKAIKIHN
Chain of USP 10 (h) (Q14694 whole entry): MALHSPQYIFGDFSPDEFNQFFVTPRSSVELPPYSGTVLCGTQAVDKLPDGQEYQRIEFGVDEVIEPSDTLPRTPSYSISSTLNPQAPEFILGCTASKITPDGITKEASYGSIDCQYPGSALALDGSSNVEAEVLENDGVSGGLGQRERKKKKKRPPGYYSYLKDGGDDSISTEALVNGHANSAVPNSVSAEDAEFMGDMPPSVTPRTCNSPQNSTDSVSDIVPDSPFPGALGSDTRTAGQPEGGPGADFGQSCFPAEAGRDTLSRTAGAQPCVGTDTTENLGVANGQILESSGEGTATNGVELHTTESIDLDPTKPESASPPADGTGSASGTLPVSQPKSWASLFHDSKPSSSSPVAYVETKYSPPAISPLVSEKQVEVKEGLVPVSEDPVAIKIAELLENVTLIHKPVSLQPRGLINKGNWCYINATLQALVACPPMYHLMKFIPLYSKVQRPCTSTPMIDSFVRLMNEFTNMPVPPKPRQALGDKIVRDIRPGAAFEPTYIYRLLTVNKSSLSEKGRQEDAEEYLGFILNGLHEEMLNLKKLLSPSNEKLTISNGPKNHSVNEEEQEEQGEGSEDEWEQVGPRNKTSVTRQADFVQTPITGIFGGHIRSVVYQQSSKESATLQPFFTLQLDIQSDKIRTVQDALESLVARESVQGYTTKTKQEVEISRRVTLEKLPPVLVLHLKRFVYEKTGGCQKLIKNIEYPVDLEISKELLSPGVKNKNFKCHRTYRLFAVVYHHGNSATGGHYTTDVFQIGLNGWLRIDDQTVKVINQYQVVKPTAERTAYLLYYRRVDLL

As for Ubiquitin Aldehyde, the IC50 at BAP1 (h) [1] was 230 nM; on USP 10 (h), 230 nM; on USP 14 (h) [2] it was 4 nM; on USP 21 (h) [3], 170 nM; at USP 7 (h) [4] it was 110 nM; at USP 14 (h) [5] it was 4 nM. The half-inhibitory concentration (IC50) is 110 nM at USP 7 (h) [6], 170 nM on USP 21 (h) [7] and 230 nM at BAP1 (h) [8].
